The source of these data is US7833967B2, “Synthetic antimicrobial polypeptides” (priority 2003, dated 2010).

Read-outs that look alike come from different tables or passages of the source. Ends that are not written are not given here.

Series [1] concerns E. coli TOP10. The experiment in a line: Suicide expression system (SES) growth inhibition. The format is cell-based. The settings on record: Table 5; mixed-motif library, re-tested in the Bioscreen C.
Series [2] relates to human red blood cells (hRBC). Format: cell-based. The settings on record: red cells of human. Here is the method: The ability of the antimicrobial peptides to lyse human red blood cells (hRBC) was analyzed. The Red Blood Cell Test assay provides a simple test system that assesses the membranolytic activity of test materials. It is suitable as a screening assay for hemolytic properties. Hemoglobin release is a useful endpoint of cell membrane integrity. Released hemoglobin is detected by measuring absorbance at 540 nm. Normally, the concentration resulting in 50% hemolysis relative to a totally lysed sample (HL50) would be calculated; however due to the low hemolytic activity of the tested peptides, this was not done in this Example. An 8% RBC suspension (12 days old) was used in the present test setup.
Since the peptides were dissolved in 0.01% acetic acid, vehicle control of the 0.01% acetic acid was included. PBS with 25%, 10%, and 5% 0.01% acetic acid was included on both plates.
To verify that a dose/response effect exists, the hemolytic activity of SDS was also tested.

“310 (RRRPPRVPRPFPIRPPPRVPRPVPVRP; Synthetic antimicrobial peptide) [compound 310]”: the “Growth inhibition (%)” value in series [1] is listed as 93%.
With “311 (RRRPPRVPRPFPVRPPPRFPRPVPFRP; Synthetic antimicrobial peptide) [compound 311]”, the “Growth inhibition (%)” value in series [1] was determined as 96%.
On the same count and under the same terms, as for “312 (RRRPPRVPRPIPIRPPPRVPRPVPFRP; Synthetic antimicrobial peptide) [compound 312]”, the figure is 93%.
The same measure, in the same setting: the result for “313 (RRRPPRVPRPIPIRPPPRVPRPVPVRP; Synthetic antimicrobial peptide) [compound 313]” reads 92%; that for “314 (RRRPPRVPRPLPFRPPPRFPRPIPFRP; Synthetic antimicrobial peptide) [compound 314]”, 94%.
On the same count and under the same terms, as for “315 (RRRPPRVPRPVPVRPPPRIPRPFPVRP; Synthetic antimicrobial peptide) [compound 315]”, the figure is 98%.
With “316 (RRRTRHVFARPFPFRPPPRIPRPFPLRP; Synthetic antimicrobial peptide) [compound 316]”, in series [1], the “Growth inhibition (%)” value is listed as 97%.
Same read-out and setting: as for “317 (RRRTRHVFARPVPVRPPPRVPRPFPVRP; Synthetic antimicrobial peptide) [compound 317]”, the figure is 95%; as for “318 (RRRTRHVVPRPLPVRPPPRVPRPFPLRP; Synthetic antimicrobial peptide) [compound 318]”, 93%; as for “319 (RRRPPRVPRPFPVRPPPRVPRPIPFVHNCSRTKTHLRRGSE; Synthetic antimicrobial peptide) [compound 319]”, 93%.
In the case of “RRRPFRPPFRPPFRPPVRPPVRPPFRP [SEQ ID NO: 79]”, the “Hemolysis (%)” value in series [2] (47 micrograms/ml) was 16%; in series [2] (94 micrograms/ml), 16%; in series [2] (188 micrograms/ml), 17%; in series [2] (375 micrograms/ml) it was 17%.
Regarding “RRRPPRLPRPFPVRPPPRFPRPFPLRP [SEQ ID NO: 239]”, the “Hemolysis (%)” value in series [2] (47 micrograms/ml) was determined as 19%; in series [2] (94 micrograms/ml), 16%; in series [2] (188 micrograms/ml), 16%; in series [2] (375 micrograms/ml) it was 18%.
For the substance “RRRPRPVPRPFPRPVPRPLPRPFPRPF [SEQ ID NO: 61]”, the “Hemolysis (%)” value in series [2] (47 micrograms/ml) came out at 16%; in series [2] (94 micrograms/ml), 16%; in series [2] (188 micrograms/ml), 16%; in series [2] (375 micrograms/ml), 17%.
